The values below come from patent US11780852B2, “Methods for treating Crohn's disease using 3-((1R,3s,5S)-3-((7-((5-methyl-1H-pyrazol-3-yl)amino)-1,6-naphthyridin-5-yl)amino)-8-azabicyclo[3.2.1]octan-8-yl)propanenitrile” (priority 2015, dated 2023).

One data set deals with JAK1 (Homo sapiens (Human), UniProt P23458). The class given is biochemical. As for the experimental part: (§1) Assay 1: Biochemical JAK and Off-Target Kinase Assays
(§2) A panel of four LanthaScreen JAK biochemical assays (JAK1, 2, 3 and Tyk2) were carried in a common kinase reaction buffer (50 mM HEPES, pH 7.5, 0.01% Brij-35, 10 mM MgCl2, and 1 mM EGTA). Recombinant GST-tagged JAK enzymes and a GFP-tagged STAT1 peptide substrate were obtained from Life Technologies.
(§3) Serially diluted compounds were pre-incubated with each of the four JAK enzymes and the substrate in white 384-well microplates (Corning) at ambient temperature for 1 h. ATP was subsequently added to initiate the kinase reactions in 10 μL total volume, with 1% DMSO. […] Kinase reactions were allowed to proceed for 1 hour at ambient temperature before a 10 μL preparation of EDTA (10 mM final concentration) and Tb-anti-pSTAT1 (pTyr701) antibody (Life Technologies, 2 nM final concentration) in TR-FRET dilution buffer (Life Technologies) was added. The plates were allowed to incubate at ambient temperature for 1 h before being read on the EnVision reader (Perkin Elmer).
(§4) Results were expressed as pIC50 (negative logarithm of IC50) and subsequently converted to pKi (negative logarithm of dissociation constant, Ki) using the Cheng-Prusoff equation.

A further data set has as its target JAK2 (Homo sapiens (Human), UniProt O60674). The class given is biochemical. The method, then:
as §1, §2, §3, §4

A further data set concerns the target TYK2 (Homo sapiens (Human), UniProt P29597). The data set is classed as biochemical. The method, then:
as §1, §2, §3, §4

For data set [1], the system named is IL-4 induced STAT6 phosphorylation in THP-1 human monocytic cells.
The test system of data set [2] is splenic NK, B and T cells. Description: Immunosuppression effects in mouse splenic natural killer (NK) cells. The data set is classed as in vivo, Balb/C mice. The settings on record: mouse, PO BID three days. As for the experimental part: Assay 8: Immunosuppression Effects in Mouse Splenic Natural Killer (NK) Cells Depletion of mouse splenic cells is an experimental model of immunosuppression (Kudlacz et al., Am. J. of Transplantation, 2004, 4, 51-57). […] Adult male Balb/C mice (12-14 weeks of age) from Harlan were used for the study. […] Spleens were harvested 1 or 2 h post last dose and crushed immediately for cell subtype staining. Prior to fixation, fluorophore-labelled antibodies for CD19 (FITC; B cells), CD3e (PE; pan T cells) and DX5 (APC; NK cells) were incubated with splenocyte samples from each animal to allow for simultaneous, multiple subtype % analysis on the flow cytometer. The number of total spleen cells for each animal was measured by Scepter™ 2.0 Handheld Automated Cell Counter. The absolute number of lymphocyte subtype population (e.g., splenic B, T and NK cells) was calculated from the percentage of each subtype times total spleen cells for each animal. A one way ANOVA, with Dunnett's post hoc test, was used to compare the splenic lymphocytes number of the vehicle and test compound groups. The a level was set at p<0.05. Data were presented as the mean±SEM for each group.

A short description of data set [3]: Determination of absorption in cannulated rats. Conditions: rat, oral dose. The class given is in vivo, Sprague Dawley rats. The method, then:
Drug levels were determined using an LC-MS-MS method. The resulting drug levels were used to compute the IV pharmacokinetic parameters: AUC IV and Dose IV. (2) Rats that have been cannulated in their portal vein (PV) and also in their jugular vein (JV) were dosed orally with test compound. Following oral dosing, plasma samples were typically collected from 0-6 hr from both the portal vein and the jugular vein. Drug levels were determined using an LC-MS-MS method. The resulting drug levels were used to compute the following pharmacokinetic parameters: AUC PO PV, AUC PO JV, and Dose PO. Using data derived from the above studies, the oral bioavailability F %, and the quantities Fa % and Fh % were calculated from the following formulas: F %=(AUC PO JV/AUC IV)*(Dose IV/Dose PO)*100 Fa %=(AUC PO PV/AUC IV)*(Dose IV/Dose PO)*100 Fh %=AUC PO JV/AUC PO PV where: AUC PO JV=Area under the curve following oral dose and plasma collected from the jugular vein AUC PO PV=Area under the curve following oral dose and plasma collected from the portal vein AUC IV=Area under the curve following an intravenous dose Dose IV=Intravenous Dose in mg/kg Dose PO=Oral Dose in mg/kg

In data set [4] the test system is oxazolone-induced colitis. Kind of data set: Mouse model of oxazolone-induced colitis. The data set is classed as in vivo, BALB/C mice. Conditions: PO, 1, 3, and/or 10 mg/kg BID (doses up to 10 mg/kg BID). As for the experimental part:
Assay 7: Mouse Model of Oxazalone-Induced Colitis
Oxazolone-induced colitis is an experimental model that has a histological resemblance to human ulcerative colitis (Heller et al. Immunology, 2002, 17, 629-638). Adult BALB/C mice from Harlan were used in the assay. On day 1, animals were lightly anesthetized with isoflurane and the hairs between the shoulder were carefully removed before oxazolone (4%, 150 μL, 4:1 acetone:olive oil formulation) or vehicle solution was slowly applied for skin sensitization. Seven days after skin sensitization, the mice were fasted overnight, anesthetized with isoflurane inhalation, and a 1 mL syringe equipped with a 3.5-F catheter, filled with oxazolone solution, was inserted carefully about 4 cm into the colon of the mouse. Following insertion, 50 μL of the oxazolone solution (1%, 1:1 ethanol:water formulation) was injected very slowly (over 30 sec using an injection pump) into the colon. The catheter was removed and the mice were held vertically (head down) for 2 min to ensure that the entire oxazolone solution remained inside the colon. Drug treatment (PO, BID or TID) or vehicle was initiated a day prior to the oxazolone intrarectal (IR) challenge. Two-day post oxazolone intrarectal challenge, the Disease Activity Index (DAI) was assessed by treatment-blinded experimenters for each mouse according to the criteria score: stool consistency score (0, normal; 2, loose; 4, diarrhea), gross bleeding score (0, absence; 2, blood tinged; 4, presence), and weight loss score (0, none; 1, 1%-5%; 2, 5%-10^%; 3, 10%-20%; 4, more than 20%); DAI=average of (stool consistency score+gross bleeding score+weight loss score).
Selected compounds of the invention were tested in the assay. Efficacy in the model is evidenced by a decrease in DAI score as compared with the score from vehicle treated animals.

Data set [5] relates to IL-13 induced STAT6 phosphorylation in BEAS-2B human lung epithelial cells.
[6] abbreviates: BEAS-2B cells, IL-13 induced STAT6 phosphorylation.
Where [7] appears, read: THP-1 cells, IL-4 induced STAT6 phosphorylation.

Each structure is given as a SMILES string. Where two headings read alike, the source gives them in different places.

JAK1, sequence (P23458 whole entry): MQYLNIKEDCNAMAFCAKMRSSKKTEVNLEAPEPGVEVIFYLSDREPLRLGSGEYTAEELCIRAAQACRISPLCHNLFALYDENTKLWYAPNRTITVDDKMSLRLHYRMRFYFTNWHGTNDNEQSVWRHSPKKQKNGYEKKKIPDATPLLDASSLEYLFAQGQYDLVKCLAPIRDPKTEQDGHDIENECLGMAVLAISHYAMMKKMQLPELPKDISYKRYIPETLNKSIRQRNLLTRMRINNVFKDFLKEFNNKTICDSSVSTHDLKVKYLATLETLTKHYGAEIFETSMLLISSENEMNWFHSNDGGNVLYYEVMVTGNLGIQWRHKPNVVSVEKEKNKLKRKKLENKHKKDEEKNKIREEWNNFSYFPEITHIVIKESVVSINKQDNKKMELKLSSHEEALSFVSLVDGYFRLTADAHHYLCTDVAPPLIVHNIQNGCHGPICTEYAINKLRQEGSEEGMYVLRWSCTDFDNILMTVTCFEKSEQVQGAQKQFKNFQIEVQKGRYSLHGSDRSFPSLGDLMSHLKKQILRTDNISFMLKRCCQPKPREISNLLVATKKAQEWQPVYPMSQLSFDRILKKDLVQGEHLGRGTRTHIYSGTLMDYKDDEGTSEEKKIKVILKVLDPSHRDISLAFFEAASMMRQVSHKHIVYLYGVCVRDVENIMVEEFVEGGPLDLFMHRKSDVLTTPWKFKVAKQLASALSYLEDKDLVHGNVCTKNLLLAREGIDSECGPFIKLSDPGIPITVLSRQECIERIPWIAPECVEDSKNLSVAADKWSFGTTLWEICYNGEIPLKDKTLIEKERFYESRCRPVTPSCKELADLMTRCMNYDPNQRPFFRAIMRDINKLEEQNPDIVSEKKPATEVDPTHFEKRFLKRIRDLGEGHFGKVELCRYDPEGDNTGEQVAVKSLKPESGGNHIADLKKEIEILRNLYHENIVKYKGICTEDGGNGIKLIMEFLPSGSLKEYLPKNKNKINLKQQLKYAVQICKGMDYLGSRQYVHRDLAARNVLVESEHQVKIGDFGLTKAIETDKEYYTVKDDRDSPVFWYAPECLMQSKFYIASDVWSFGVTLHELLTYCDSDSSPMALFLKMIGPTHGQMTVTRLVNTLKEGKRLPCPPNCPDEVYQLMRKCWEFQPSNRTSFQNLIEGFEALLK
TYK2, sequence (P29597 whole entry): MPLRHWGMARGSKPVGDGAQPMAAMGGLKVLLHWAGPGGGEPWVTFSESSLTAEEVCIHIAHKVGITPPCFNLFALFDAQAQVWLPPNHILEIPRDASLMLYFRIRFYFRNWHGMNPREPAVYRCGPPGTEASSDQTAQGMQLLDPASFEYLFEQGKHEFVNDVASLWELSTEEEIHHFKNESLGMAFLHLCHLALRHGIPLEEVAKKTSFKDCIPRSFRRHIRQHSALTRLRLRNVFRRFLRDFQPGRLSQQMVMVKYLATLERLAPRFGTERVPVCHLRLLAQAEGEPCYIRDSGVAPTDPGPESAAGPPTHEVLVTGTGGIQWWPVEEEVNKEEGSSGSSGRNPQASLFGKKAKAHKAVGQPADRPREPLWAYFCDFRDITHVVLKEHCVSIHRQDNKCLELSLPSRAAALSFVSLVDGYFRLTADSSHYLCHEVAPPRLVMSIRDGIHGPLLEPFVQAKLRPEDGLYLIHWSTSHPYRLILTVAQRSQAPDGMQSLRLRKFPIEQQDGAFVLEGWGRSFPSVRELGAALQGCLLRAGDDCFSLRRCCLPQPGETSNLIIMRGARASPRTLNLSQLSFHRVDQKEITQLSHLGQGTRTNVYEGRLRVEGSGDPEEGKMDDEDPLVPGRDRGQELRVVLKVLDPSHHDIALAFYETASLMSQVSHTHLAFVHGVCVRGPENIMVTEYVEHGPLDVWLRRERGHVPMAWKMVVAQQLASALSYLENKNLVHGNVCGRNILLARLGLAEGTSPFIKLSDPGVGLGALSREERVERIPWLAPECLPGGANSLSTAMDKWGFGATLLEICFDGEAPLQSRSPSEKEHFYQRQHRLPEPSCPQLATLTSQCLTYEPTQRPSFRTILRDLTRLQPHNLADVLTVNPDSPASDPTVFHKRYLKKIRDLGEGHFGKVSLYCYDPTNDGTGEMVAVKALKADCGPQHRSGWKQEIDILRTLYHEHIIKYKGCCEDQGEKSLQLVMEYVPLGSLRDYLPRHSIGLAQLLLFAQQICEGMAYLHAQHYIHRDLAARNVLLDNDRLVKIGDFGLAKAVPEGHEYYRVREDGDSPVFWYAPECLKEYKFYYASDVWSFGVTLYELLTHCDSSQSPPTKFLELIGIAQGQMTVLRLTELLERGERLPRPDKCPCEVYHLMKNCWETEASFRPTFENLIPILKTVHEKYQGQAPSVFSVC
JAK2, sequence (O60674 whole entry): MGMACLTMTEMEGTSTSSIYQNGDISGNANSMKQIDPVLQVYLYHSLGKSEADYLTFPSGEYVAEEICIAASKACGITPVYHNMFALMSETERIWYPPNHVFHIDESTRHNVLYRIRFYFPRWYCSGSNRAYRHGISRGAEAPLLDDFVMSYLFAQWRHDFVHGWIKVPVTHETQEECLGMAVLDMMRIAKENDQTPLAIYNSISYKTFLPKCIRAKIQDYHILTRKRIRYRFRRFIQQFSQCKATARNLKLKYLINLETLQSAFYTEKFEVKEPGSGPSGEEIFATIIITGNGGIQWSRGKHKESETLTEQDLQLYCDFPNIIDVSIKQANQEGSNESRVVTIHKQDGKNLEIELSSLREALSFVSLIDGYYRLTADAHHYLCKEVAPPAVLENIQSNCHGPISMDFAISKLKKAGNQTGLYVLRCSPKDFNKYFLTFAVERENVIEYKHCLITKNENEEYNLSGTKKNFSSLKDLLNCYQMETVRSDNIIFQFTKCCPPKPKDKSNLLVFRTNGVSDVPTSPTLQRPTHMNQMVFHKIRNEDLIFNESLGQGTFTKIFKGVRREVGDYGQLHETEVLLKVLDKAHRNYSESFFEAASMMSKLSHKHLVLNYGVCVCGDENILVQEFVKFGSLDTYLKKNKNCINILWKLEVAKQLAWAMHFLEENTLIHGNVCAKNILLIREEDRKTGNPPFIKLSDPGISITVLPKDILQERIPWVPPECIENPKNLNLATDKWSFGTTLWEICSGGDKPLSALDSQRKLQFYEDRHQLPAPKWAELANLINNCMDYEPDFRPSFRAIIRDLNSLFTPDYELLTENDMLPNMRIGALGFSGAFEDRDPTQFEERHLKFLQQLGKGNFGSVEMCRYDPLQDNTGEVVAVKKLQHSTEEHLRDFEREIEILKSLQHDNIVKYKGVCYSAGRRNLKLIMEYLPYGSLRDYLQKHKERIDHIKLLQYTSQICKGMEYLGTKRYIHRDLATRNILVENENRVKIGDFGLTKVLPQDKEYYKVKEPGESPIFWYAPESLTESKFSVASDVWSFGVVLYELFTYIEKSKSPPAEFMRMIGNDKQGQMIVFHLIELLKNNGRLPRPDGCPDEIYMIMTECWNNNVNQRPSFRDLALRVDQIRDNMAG

As for `Cc1cc(Nc2cc3ncccc3c(N[C@@H]3C[C@H]4CCC[C@@H](C3)N4CC(F)(F)F)n2)n[nH]1` [Example 1-45], the “JAK 1 (pKi)” value on JAK1 was “B (B represents a pKi value between 9 and 10 (Ki between 1 nM and 0.1 nM))”. Besides, the “JAK 2 (pKi)” value on JAK2 is “B (B represents a pKi value between 9 and 10 (Ki between 1 nM and 0.1 nM))”. The “Tyk 2 (pKi)” value on TYK2 was “B (B represents a pKi value between 9 and 10 (Ki between 1 nM and 0.1 nM))”.

With `Cc1cc(Nc2cc3ncccc3c(N[C@@H]3C[C@H]4CC[C@@H](C3)N4C(=O)C3(C)CCCC3)n2)n[nH]1` [Example 2-10], the “JAK 1 (pKi)” value on JAK1 was “B (B represents a pKi value between 9 and 10 (Ki between 1 nM and 0.1 nM))”. For the same compound, in data set [1], the “THP-1 IL4 pIC50” value is “B (key: A represents a pEC50 value ≥7.5 (EC50≤32 nM); B represents a pEC50 value between 6.7 and 7.5 (EC50 between 200 nM and 32 nM); C represents a pEC50 value <6.7 (EC50>200 nM))”.

For the compound `C[C@@H]1CCN(C(=O)CC#N)C[C@@H]1N(C)c1ncnc2[nH]ccc12` [tofacitinib, reference compound], in data set [2], the “B and T cell populations (spleen)” value is reported as “No treatment effect”.

As for `Cc1cc(Nc2cc3nc(CO)ccc3c(N[C@@H]3C[C@H]4CC[C@@H](C3)N4C(=O)OCC(C)C)n2)n[nH]1` [Example 12, Isobutyl (1R,3s,5S)-3-((2-(hydroxymethyl)-7-((5-methyl-1H-pyrazol-3-yl)amino)-1,6-naphthyridin-5-yl)amino)-8-azabicyclo[3.2.1]octane-8-carboxylate], in data set [3], the “absorption at the portal vein (Fa %)” value is listed as “less than 10%”. The “DAI score as compared with vehicle treated animals” value in data set [4] was “statistically significant decrease”.

As for `Cc1cc(Nc2cc3ncccc3c(N[C@@H]3C[C@H]4CC[C@@H](C3)N4CC3(C#N)CC3)n2)n[nH]1` [Example 1-24], the “BEAS2B pIC50” value in data set [5] (setting [6]) is on record as “A (A represents a pEC50 value ≥7.5 (EC50≤32 nM))”. Moreover, in data set [1] (setting [7]), the “THP-1 IL4 pIC50” value is “B (B represents a pEC50 value between 6.7 and 7.5 (EC50 between 200 nM and 32 nM))”.

Regarding `CCC1(S(=O)(=O)N2[C@@H]3CCC[C@H]2C[C@H](Nc2nc(Nc4cc(C)[nH]n4)cc4ncccc24)C3)CC1` [Example 4-20], in data set [5], the “BEAS2B pIC50” value was “A (key: A represents a pEC50 value ≥7.5 (EC50≤32 nM); B represents a pEC50 value between 6.7 and 7.5 (EC50 between 200 nM and 32 nM); C represents a pEC50 value <6.7 (EC50>200 nM))”.

For the compound `Cc1cc(Nc2cc3ncccc3c(N[C@@H]3C[C@H]4CCC[C@@H](C3)N4S(=O)(=O)c3cccnc3)n2)n[nH]1` [Example 8, N^7-(5-methyl-1H-pyrazol-3-yl)-N-((1R,3s,5S)-9-(pyridin-3-ylsulfonyl)-9-azabicyclo[3.3.1]nonan-3-yl)-1,6-naphthyridine-5,7-diamine], the “absorption at the portal vein (Fa %)” value in data set [3] is on record as “less than 10%”. In addition, the “DAI score as compared with vehicle treated animals” value in data set [4] is “statistically significant decrease”.

For `COC(=O)C1(C(=O)N2[C@@H]3CC[C@H]2C[C@H](Nc2nc(Nc4cc(C)[nH]n4)cc4ncccc24)C3)CC1` [Example 2-9], in data set [1] (setting [7]), the “THP-1 IL4 pIC50” value is on record as “C (C represents a pEC50 value <6.7 (EC50>200 nM))”.

In the case of `Cc1cc(Nc2cc3ncccc3c(N[C@@H]3C[C@H]4CC[C@@H](C3)N4C(=O)c3cccnc3)n2)n[nH]1` [Example 2-14], the “JAK 1 (pKi)” value at JAK1 is “B (B represents a pKi value between 9 and 10 (Ki between 1 nM and 0.1 nM))”. Further, in data set [1], the “THP-1 IL4 pIC50” value is “C (key: A represents a pEC50 value ≥7.5 (EC50≤32 nM); B represents a pEC50 value between 6.7 and 7.5 (EC50 between 200 nM and 32 nM); C represents a pEC50 value <6.7 (EC50>200 nM))”.

Consider `Cc1cc(Nc2cc3ncccc3c(N[C@@H]3C[C@H]4CCC[C@@H](C3)N4C(=O)C3(C)CCCC3)n2)n[nH]1` [Example 2-23], for which the “JAK 1 (pKi)” value on JAK1 was “B (B represents a pKi value between 9 and 10 (Ki between 1 nM and 0.1 nM))”.

As to `CCS(=O)(=O)N1[C@@H]2CC[C@H]1C[C@H](Nc1nc(Nc3cc(C)[nH]n3)cc3nc(CN4CCOCC4)ccc13)C2` [Example 5-16], the “BEAS2B pIC50” value in data set [5] (setting [6]) is “B (B represents a pEC50 value between 6.7 and 7.5 (EC50 between 200 nM and 32 nM))”. In data set [1] (setting [7]), the “THP-1 IL4 pIC50” value was “B (B represents a pEC50 value between 6.7 and 7.5 (EC50 between 200 nM and 32 nM))”.

`Cc1cc(Nc2cc3ncccc3c(N[C@@H]3C[C@H]4CC[C@@H](C3)N4Cc3cccc(O)c3)n2)n[nH]1` [Example 1-19]: the “Tyk 2 (pKi)” value on TYK2 is “C (C represents a pKi value between 7 and 9 (Ki between 100 nM and 1 nM))”. Besides, in data set [1] (setting [7]), the “THP-1 IL4 pIC50” value is “B (B represents a pEC50 value between 6.7 and 7.5 (EC50 between 200 nM and 32 nM))”.

On to `CCC(=O)N1[C@@H]2CC[C@H]1C[C@H](Nc1nc(Nc3cc(C)[nH]n3)cc3ncccc13)C2` [Example 2-1], for which the “DAI score as compared with vehicle treated animals” value in data set [4] was “did not exhibit a statistically significant decrease”. The “BEAS2B pIC50” value in data set [5] (setting [6]) is “B (B represents a pEC50 value between 6.7 and 7.5 (EC50 between 200 nM and 32 nM))”. Besides, the “THP-1 IL4 pIC50” value in data set [1] (setting [7]) is “B (B represents a pEC50 value between 6.7 and 7.5 (EC50 between 200 nM and 32 nM))”.

For the compound `Cc1cc(Nc2cc3ncccc3c(N[C@@H]3C[C@H]4CC[C@@H](C3)N4CC3COC(=O)O3)n2)n[nH]1` (stereo partly drawn) [Example 1-30], in data set [1], the “THP-1 IL4 pIC50” value was “B (key: A represents a pEC50 value ≥7.5 (EC50≤32 nM); B represents a pEC50 value between 6.7 and 7.5 (EC50 between 200 nM and 32 nM); C represents a pEC50 value <6.7 (EC50>200 nM))”.

In the case of `COC(=O)C1(C(=O)N2[C@@H]3CCC[C@H]2C[C@H](Nc2nc(Nc4cc(C)[nH]n4)cc4ncccc24)C3)CC1` [Example 2-21], the “JAK 1 (pKi)” value at JAK1 was “B (B represents a pKi value between 9 and 10 (Ki between 1 nM and 0.1 nM))”.

On to `Cc1cc(Nc2cc3ncccc3c(N[C@@H]3C[C@H]4CC[C@@H](C3)N4C(=O)c3ccccc3)n2)n[nH]1` [Example 2-12], for which, in data set [1], the “THP-1 IL4 pIC50” value was “B (key: A represents a pEC50 value ≥7.5 (EC50≤32 nM); B represents a pEC50 value between 6.7 and 7.5 (EC50 between 200 nM and 32 nM); C represents a pEC50 value <6.7 (EC50>200 nM))”.
